PubChem BioAssay (NCI)
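Test compounds were applied to cells in 96-well plates for 48 hours at 5 doses. Definition used: TGI = concentration required for complete inhibition of growth.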

How the values were obtained:
Test in all cases: NCI tumour cell line growth inhibition, 48 h
[1] = tested on: ACHN renal
[2] = tested on: DU-145 prostate
[3] = tested on: HCT-116 colon
[4] = tested on: LOX IMVI melanoma
[5] = tested on: OVCAR-8 ovarian
[6] = tested on: NCI/ADR-RES ovarian
[7] = tested on: NCI-H226 lung
[8] = tested on: MDA-MB-435
[9] = tested on: MOLT-4 leukemia
[10] = tested on: RXF 393 renal
[11] = tested on: NCI-H23 lung
[12] = tested on: MDA-MB-231 breast
[13] = tested on: SN12C renal
[14] = tested on: OVCAR-3 ovarian
[15] = tested on: SF-268 CNS
[16] = tested on: NCI-H522 lung
[17] = tested on: U251 CNS
[18] = tested on: OVCAR-4 ovarian
[19] = tested on: SF-295 CNS
[20] = tested on: SK-OV-3 ovarian
[21] = tested on: HCT-15 colon
[22] = tested on: MALME-3M melanoma
[23] = tested on: SNB-19 CNS
[24] = tested on: HS 578T breast
[25] = tested on: MCF7 breast
[26] = tested on: SF-539 CNS
[27] = tested on: RPMI-8226 leukemia
[28] = tested on: HOP-62 NSCLC
[29] = tested on: SK-MEL-28 melanoma
[30] = tested on: IGROV1 ovarian
[31] = tested on: SK-MEL-2 melanoma
[32] = tested on: A549 NSCLC
[33] = tested on: SR leukemia
[34] = tested on: SNB-75 CNS
[35] = tested on: M14 melanoma
[36] = tested on: HT29 colon
[37] = tested on: PC-3 prostate
[38] = tested on: TK-10 renal
[39] = tested on: KM12 colon
[40] = tested on: UO-31 renal
[41] = tested on: CCRF-CEM leukemia
[42] = tested on: HL-60(TB) leukemia
[43] = tested on: HOP-92 NSCLC
[44] = tested on: UACC-62 melanoma
[45] = tested on: EKVX NSCLC
[46] = tested on: 786-0 renal
[47] = tested on: NCI-H460 lung
[48] = tested on: SW-620 colon
[49] = tested on: UACC-257 melanoma
[50] = tested on: OVCAR-5 ovarian
[51] = tested on: MDA-N
[52] = tested on: SK-MEL-5 melanoma
[53] = tested on: CAKI-1 renal
[54] = tested on: K-562 leukemia
[55] = tested on: COLO 205 colon
[56] = tested on: A498 renal
[57] = tested on: T-47D breast
[58] = tested on: HCC-2998 colon
[59] = tested on: BT-549 breast

Measured: TGI

Nc1ncc2c(n1)-c1ccccc1OC2N1CCOCC1 (stereo not given)
not listed: [56] | [57] | [58] | [59]
> 100 µM: all other assays above

Nn1c(CCCCCCCCc2n[nH]c(=S)n2N)n[nH]c1=S
not listed: [4] | [24] | [38] | [52]
> 100 µM: all other assays above
